Laboratory results published in PMC10716637 (RSC Advances, 2023).
Like-named read-outs stand apart in the source and are kept apart here.

Key:
EGFR^T790M = EGFR^T790M (Homo sapiens, UniProt P00533, T790M); experiment: In vitro EGFR^T790M kinase inhibitory assay; format: biochemical
A549 = experiment: MTT cytotoxicity assay, A549; format: cell-based, human; conditions: for EC50: Homo sapiens, A549, read-out: EC50 A549; for Selectivity index (SI): folds toxicity in A549 than in VERO cells: CC50 VERO vs EC50 A549
HCT116 = experiment: MTT cytotoxicity assay, HCT116; format: cell-based, human; conditions: for EC50: Homo sapiens, HCT-116, read-out: EC50 HCT116; for Selectivity index (SI): folds lethalness in HCT-116 than in VERO cells: CC50 VERO vs EC50 HCT-116
HepG2 = experiment: MTT cytotoxicity assay, HepG2; format: cell-based, human; conditions: for EC50: Homo sapiens, HepG2, read-out: EC50 HepG2; for Selectivity index (SI): folds more toxic respecting HepG2 than normal VERO cells: CC50 VERO vs EC50 HepG2
MCF-7 = experiment: MTT cytotoxicity assay, MCF-7; format: cell-based, human; conditions: for EC50: Homo sapiens, MCF7, read-out: EC50 MCF-7; for Selectivity index (SI): folds toxic in MCF-7 than in normal VERO cells: CC50 VERO vs EC50 MCF-7
VEGFR-2 = VEGFR-2 (Homo sapiens, UniProt P35968); experiment: In vitro VEGFR-2 kinase inhibitory assay; format: biochemical
[1] = Cytotoxicity against VERO normal cell lines; conditions: African green monkey, VERO normal cells
EGFR^WT = EGFR^WT (Homo sapiens, UniProt P00533); experiment: In vitro EGFR^WT kinase inhibitory assay; format: biochemical
Sequence of EGFR^WT (P00533 25-1210): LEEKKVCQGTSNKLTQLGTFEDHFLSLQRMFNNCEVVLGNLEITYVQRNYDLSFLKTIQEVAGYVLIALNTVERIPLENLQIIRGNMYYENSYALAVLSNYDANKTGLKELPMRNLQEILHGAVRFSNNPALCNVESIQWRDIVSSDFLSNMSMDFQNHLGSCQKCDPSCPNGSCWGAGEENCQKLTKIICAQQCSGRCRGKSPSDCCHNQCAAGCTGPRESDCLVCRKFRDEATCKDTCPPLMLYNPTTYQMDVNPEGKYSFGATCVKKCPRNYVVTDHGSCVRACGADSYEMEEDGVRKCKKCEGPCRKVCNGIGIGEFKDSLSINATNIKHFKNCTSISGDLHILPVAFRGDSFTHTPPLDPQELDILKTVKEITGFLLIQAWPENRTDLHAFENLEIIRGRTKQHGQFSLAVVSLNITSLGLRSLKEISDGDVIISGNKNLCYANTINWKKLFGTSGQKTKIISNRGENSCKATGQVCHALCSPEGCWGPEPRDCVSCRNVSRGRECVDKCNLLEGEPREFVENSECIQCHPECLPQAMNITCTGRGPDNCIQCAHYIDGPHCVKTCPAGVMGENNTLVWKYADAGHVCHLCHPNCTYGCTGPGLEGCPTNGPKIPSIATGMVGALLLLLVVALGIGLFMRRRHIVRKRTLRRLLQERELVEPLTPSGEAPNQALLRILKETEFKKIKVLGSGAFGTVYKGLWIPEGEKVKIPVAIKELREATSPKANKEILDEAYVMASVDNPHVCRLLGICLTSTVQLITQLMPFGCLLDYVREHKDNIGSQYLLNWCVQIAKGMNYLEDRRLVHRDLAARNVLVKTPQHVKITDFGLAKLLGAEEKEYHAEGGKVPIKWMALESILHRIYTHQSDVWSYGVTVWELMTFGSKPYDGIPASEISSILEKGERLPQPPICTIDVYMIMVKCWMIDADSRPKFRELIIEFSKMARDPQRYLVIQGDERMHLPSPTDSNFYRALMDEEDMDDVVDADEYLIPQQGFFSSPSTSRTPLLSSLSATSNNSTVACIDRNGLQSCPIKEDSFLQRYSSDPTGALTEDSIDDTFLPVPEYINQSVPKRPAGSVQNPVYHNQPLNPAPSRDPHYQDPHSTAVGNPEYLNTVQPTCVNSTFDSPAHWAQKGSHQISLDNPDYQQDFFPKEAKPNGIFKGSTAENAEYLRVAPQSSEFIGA

Sequence of VEGFR-2 (P35968 20-1356): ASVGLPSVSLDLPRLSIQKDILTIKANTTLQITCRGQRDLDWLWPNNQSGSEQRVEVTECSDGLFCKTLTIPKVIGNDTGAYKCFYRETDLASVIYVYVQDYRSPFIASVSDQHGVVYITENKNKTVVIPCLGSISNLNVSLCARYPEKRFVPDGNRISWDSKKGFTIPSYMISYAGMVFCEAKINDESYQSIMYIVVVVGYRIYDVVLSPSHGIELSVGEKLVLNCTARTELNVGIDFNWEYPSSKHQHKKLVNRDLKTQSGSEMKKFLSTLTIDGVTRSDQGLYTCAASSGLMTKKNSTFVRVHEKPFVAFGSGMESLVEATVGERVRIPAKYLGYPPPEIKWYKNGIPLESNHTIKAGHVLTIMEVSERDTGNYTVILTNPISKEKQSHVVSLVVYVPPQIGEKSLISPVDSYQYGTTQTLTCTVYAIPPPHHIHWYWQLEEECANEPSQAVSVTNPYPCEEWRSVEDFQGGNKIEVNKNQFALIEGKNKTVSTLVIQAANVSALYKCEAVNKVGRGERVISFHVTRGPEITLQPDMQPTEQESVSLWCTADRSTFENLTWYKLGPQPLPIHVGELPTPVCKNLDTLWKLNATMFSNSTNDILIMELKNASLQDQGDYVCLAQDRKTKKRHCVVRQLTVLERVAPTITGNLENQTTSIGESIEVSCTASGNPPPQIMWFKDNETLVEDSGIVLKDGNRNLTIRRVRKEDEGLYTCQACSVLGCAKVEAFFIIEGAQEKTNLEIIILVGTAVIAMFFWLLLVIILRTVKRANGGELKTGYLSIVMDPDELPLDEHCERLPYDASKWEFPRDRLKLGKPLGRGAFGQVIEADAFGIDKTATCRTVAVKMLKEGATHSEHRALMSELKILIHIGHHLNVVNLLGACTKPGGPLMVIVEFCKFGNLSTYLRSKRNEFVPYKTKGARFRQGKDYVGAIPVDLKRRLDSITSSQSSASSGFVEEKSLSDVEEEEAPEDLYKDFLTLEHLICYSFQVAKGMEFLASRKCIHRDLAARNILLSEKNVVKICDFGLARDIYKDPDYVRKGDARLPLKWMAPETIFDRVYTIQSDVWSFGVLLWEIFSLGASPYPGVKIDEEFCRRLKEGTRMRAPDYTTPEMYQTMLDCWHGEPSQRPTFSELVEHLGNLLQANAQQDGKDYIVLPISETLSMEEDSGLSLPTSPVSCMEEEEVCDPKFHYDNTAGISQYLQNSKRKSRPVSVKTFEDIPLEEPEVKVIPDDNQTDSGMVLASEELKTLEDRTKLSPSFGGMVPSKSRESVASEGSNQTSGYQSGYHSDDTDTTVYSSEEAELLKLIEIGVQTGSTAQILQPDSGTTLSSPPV
Sequence of EGFR^T790M (P00533 25-1210 T790M): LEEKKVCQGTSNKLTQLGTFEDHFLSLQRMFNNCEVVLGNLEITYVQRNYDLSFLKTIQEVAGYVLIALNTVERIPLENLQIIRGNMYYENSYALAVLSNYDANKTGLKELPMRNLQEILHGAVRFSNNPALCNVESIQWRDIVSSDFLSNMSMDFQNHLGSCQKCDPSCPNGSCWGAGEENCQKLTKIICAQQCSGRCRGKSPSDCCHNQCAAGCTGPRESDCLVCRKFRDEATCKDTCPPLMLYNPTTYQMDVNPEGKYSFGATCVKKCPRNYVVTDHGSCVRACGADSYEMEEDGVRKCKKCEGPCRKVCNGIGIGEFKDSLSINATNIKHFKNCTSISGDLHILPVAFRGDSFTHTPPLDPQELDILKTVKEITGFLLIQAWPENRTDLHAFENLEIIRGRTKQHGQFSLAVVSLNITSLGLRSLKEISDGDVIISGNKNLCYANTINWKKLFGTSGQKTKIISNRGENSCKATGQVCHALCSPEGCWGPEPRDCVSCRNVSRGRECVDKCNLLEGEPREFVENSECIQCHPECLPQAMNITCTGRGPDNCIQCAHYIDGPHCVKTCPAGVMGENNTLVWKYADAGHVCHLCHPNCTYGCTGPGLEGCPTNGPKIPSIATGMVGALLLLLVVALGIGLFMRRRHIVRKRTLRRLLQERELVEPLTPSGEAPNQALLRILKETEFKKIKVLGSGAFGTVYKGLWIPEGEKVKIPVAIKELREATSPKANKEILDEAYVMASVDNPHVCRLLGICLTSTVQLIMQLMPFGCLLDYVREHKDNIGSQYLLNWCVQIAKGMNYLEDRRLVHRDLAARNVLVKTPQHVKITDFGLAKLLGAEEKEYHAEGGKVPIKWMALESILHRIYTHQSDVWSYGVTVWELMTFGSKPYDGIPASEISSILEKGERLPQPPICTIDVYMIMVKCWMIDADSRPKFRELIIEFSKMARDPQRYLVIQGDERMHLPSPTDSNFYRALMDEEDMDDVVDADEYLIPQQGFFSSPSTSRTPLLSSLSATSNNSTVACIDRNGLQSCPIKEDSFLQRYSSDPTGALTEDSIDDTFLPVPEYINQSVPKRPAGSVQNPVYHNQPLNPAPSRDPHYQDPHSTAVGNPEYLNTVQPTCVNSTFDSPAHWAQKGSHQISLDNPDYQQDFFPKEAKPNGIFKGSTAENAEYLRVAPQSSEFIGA

SMILES	IC50 (EGFR^T790M) [µM]	EC50 (A549) [µM]	EC50 (HCT116) [µM]	EC50 (HepG2) [µM]	EC50 (MCF-7) [µM]	IC50 (VEGFR-2) [µM]	Selectivity index (SI): folds toxicity in A549 than in VERO cells (A549) [folds]	Selectivity index (SI): folds lethalness in HCT-116 than in VERO cells (HCT116) [folds]	Selectivity index (SI): folds more toxic respecting HepG2 than normal VERO cells (HepG2) [folds]	Selectivity index (SI): folds toxic in MCF-7 than in normal VERO cells (MCF-7) [folds]	CC50 [1] [µM]	IC50 (EGFR^WT) [µM]	IC50 (EGFR^T790M; IC50 EGFR^T790M) [µM]
CCn1c(=O)n(CC(=O)Nc2ccc(-c3nnc(S)o3)cc2)c(=O)c2cc(I)ccc21 [Compound 8a, 2-[1-Ethyl-6-iodo-2,4-dioxo-1,4-dihydroquinazolin-3(2H)-yl]-N-[4-(5-mercapto-1,3,4-oxadiazol-2-yl)phenyl]acetamide]	1 ± 0.5	10.1 ± 0.9	7.25 ± 0.9	7.55 ± 0.9	8.25 ± 0.9	1.5 ± 0.1							
CCCn1c(=O)n(CC(=O)Nc2ccc(-c3nnc(S)o3)cc2)c(=O)c2cc(I)ccc21 [Compound 8b, 2-[6-Iodo-2,4-dioxo-1-propyl-1,4-dihydroquinazolin-3(2H)-yl]-N-[4-(5-mercapto-1,3,4-oxadiazol-2-yl)phenyl]acetamide]	0.45 ± 0.35	6.7 ± 0.5	6.75 ± 0.7	7.5 ± 0.7	7.45 ± 0.7	1.38 ± 0.1	7.57	7.52	6.77	6.81	50.75 ± 0.5	0.38 ± 0.03	
CCn1c(=O)n(CC(=O)Nc2ccc(C(=O)NN=Cc3ccccc3)cc2)c(=O)c2cc(I)ccc21 [Compound 9a, N-[4-(2-benzylidenehydrazine-1-carbonyl)phenyl]-2-[1-ethyl-6-iodo-2,4-dioxo-1,4-dihydroquinazolin-3(2H)-yl]acetamide]	0.75 ± 0.5	6.75 ± 0.7	6.29 ± 0.7	6.8 ± 0.7	7.5 ± 0.7	1 ± 0.1	6.74	7.23	6.69	6.07	45.5 ± 0.5		1.5
CCn1c(=O)n(CC(=O)Nc2ccc(C(=O)NN=Cc3ccc(C)cc3)cc2)c(=O)c2cc(I)ccc21 [Compound 9b, 2-[1-Ethyl-6-iodo-2,4-dioxo-1,4-dihydroquinazolin-3(2H)-yl]-N-{4-[2-(4-methylbenzylidene)hydrazine-1-carbonyl]phenyl}acetamide]	0.5 ± 0.35	6.75 ± 0.6	5.93 ± 0.6	6.2 ± 0.7	6.7 ± 0.6	0.9 ± 0.1	7.30	8.31	7.94	7.35	49.2 ± 0.5	0.35 ± 0.03	
CCn1c(=O)n(CC(=O)Nc2ccc(C(=O)NN=Cc3ccc(OC)cc3)cc2)c(=O)c2cc(I)ccc21 [Compound 9c, 2-[1-Ethyl-6-iodo-2,4-dioxo-1,4-dihydroquinazolin-3(2H)-yl]-N-{4-[2-(4-methoxybenzylidene)-hydrazine-1-carbonyl]phenyl}acetamide]	0.22 ± 0.3	5.25 ± 0.5	5.17 ± 0.5	5 ± 0.5	6 ± 0.5	0.85 ± 0.1	10.48	10.64	11.00	9.17	55 ± 0.5	0.15 ± 0.03	
CCCn1c(=O)n(CC(=O)Nc2ccc(C(=O)NN=Cc3ccccc3)cc2)c(=O)c2cc(I)ccc21 [Compound 9d, N-[4-(2-benzylidenehydrazine-1-carbonyl)phenyl]-2-[6-iodo-2,4-dioxo-1-propyl-1,4-dihydroquinazolin-3(2H)-yl]acetamide]	0.26 ± 0.3	5.48 ± 0.5	6.5 ± 0.5	5.65 ± 0.5	6.45 ± 0.5	0.9 ± 0.1	9.20	7.75	8.92	7.81	50.39 ± 0.5	0.2 ± 0.03	
CCCn1c(=O)n(CC(=O)Nc2ccc(C(=O)NN=Cc3ccc(Cl)cc3)cc2)c(=O)c2cc(I)ccc21 [Compound 9e, N-{4-[2-(4-chlorobenzylidene)hydrazine-1-carbonyl]phenyl}-2-{6-iodo-2,4-dioxo-1-propyl-1,4-dihydroquinazolin-3(2H)-yl}acetamide]	0.3 ± 0.3	6.3 ± 0.7	6.7 ± 0.7	7.36 ± 0.7	7.3 ± 0.7	1.2 ± 0.1	7.30	6.87	6.25	6.30	46 ± 0.5	0.25 ± 0.03	
C#Cc1cccc(Nc2ncnc3cc(OCCOC)c(OCCOC)cc23)c1 [Erlotinib, reference compound]		5.49 ± 0.45	8.2 ± 0.34	7.73 ± 0.67	13.9 ± 1.3								
CNC(=O)c1cc(Oc2ccc(NC(=O)Nc3ccc(Cl)c(C(F)(F)F)c3)cc2)ccn1 [Sorafenib, reference compound]		4.04 ± 0.33	5.58 ± 0.55	4 ± 0.33									
